From US8309356B2, “Pseudocomplementary oligonucleotides for targeted gene therapy” (Yale University, priority 2009, dated 2012)

Key:
supF reporter gene = assay: Induced recombination / gene correction of supF reporter gene in SV40-based shuttle vector transfected into COS cells, scored in indicator bacteria; format: cell-based, monkey; details: plasmid co-mixed with binding molecule and supF1-donor DNA, two days
Description: In this assay, each targeting oligomer was designed, including the pair of pcPNAs, the TFO (AG30) and the bis-PNA (bis-PNA5), to bind to a selected site in the supF reporter gene contained in an SV40-based shuttle vector. In this vector construct, the supF gene has an inactivating single base pair mutation which can be corrected by recombination with a short single stranded oligonucleotide donor. The pcPNAs were designed to bind to a mixed sequence site 62 by away from the mutation, whereas the TFO and the bis-PNA were targeted to a G:C by rich polypurine site 24 by away from the mutation. The plasmid vector DNA was co-mixed with selected molecules, and the samples were transfected into monkey COS cells. Two days were allowed for repair/recombination/replication, and the episomal vector DNA was harvested for genetic analysis of the supF gene in indicator bacteria, as previously described (by Chan, et al., J. Biol. Chem., 274:11541-11548 (1999)). As expected, and consistent with other published work, the TFO (AG30) and the bis-PNAS induced gene correction in the supF gene at frequencies of 0.14% and 0.21%, respectively (FIG. 4). […] A pair of control pcPNAs (pcPNA3 and pcPNA4) with 5 mismatches each to the supF target site were ineffective, showing the sequence specificity of the process.

[1] = test system: chromosomal GFP/IVS2-1^G→A gene; assay: Gene correction of chromosomal GFP/IVS2-1G→A fusion gene in CHO reporter cells, GFP-positive cells quantified by FACS; format: cell-based; details: with β-globin/GFP donor DNA (or donor alone)
Method: The HinDIII-NotI fragments of these plasmids, containing the GFP sequence interrupted by IVS2-1 or IVS2 wt construct, were subcloned into the multiple cloning site of pcDNA5/FRT (Invitrogen, Carlsbad, Calif.), and the resulting vectors were stably transfected into CHO-Flp host cell lines using the Flp-In System according to manufacturer's instructions (Invitrogen, Carlsbad Calif.). […] The resulting CHO-GFP/IVS2-1^G→A cells and control CHO-GFP/IVS2-1^WT cells were grown in Ham's F12 media supplemented with 10% FBS and 2 mM L-glutamine.
1×10^6 cells in 100 μl of media were mixed with selected pcPNAs (6 μM) and GFP-DNA (12 μM) oligonucleotides and electroporated in 0.4 cm cuvettes using a Bio-Rad Gene Pulser (280V, […], Hercules, Calif.). Cells were replated in 60 mm dishes following electroporation and allowed to expand to approximately 90% confluency (2-3 days). […] Two days later as indicated, cells were then visualized via fluorescence microscopy or analyzed by FACS.
Cells were visualized using a Zeiss Axiovert 200 (Thornwood, N.Y.) fluorescent microscope at 100× and 200× magnification. […] Cells were analyzed using a Becton Dickinson FACS-Calibur flow cytometer (Franklin Lakes, N.J.). […] Collected data were then analyzed using the FlowJo software (Tree Star Inc., Ashland, Oreg.). […]

Substance | Frequency of gene correction in the supF gene (recombination frequency) (supF reporter gene) | Frequency of gene correction ([1]; S-phase synchronized cells, SAHA, single treatment) | Frequency of gene correction ([1]; asynchronous CHO-GFP/IVS2-1G→A cells, single electroporation, no additive)
JJJJJTTJJT-O-O-O-TCCTTCCCCC-(Lys)3 (JJJJJTTJJT-O-O-O-TCCTTCCCCC-(Lys)_{3}; as printed in the source, key not given here) [Bis-PNA5] | 0.21% | – | –
AGGAAGGGGGGGGTGGTGGGGGAGGGGGAG (chemistry not given here) [AG30] | 0.14% | – | –
GTTCAGCGTGTCCGGCGAGGGCGAGGTGAGTCTATGGGACCCTTGATGTTT (listed as DNA, chemistry not given here) [GFP-donor DNA] | – | 0.29% | 0.005%
